In patent publication US9555038B2, “Heterocycle-substituted tetracyclic compounds and methods of use thereof for the treatment of viral diseases” (Merck Sharp & Dohme Corp., priority 2013, dated 2017) one finds IC50 data, which are given here for 19 molecules.

Like-named read-outs stand apart in the source and are kept apart here.

One assay relates to HCV replicon 1A. Put plainly: Cell-based HCV Replicon Assay A, replicon 1A. Put shortly: (§1)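 Replicon cells seeded at 2000 cells/well with compound, 10 serial dilutions starting at 333.3 nM to 1.667 nM, 0.5% DMSO, 5% FBS, harvested on day 3. Replicon RNA measured by multiplex TaqMan RT-PCR with cyclophilin as endogenous control, quantified from standard curves of Ct vs log ng RNA.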

The next assay relates to HCV replicon 1AY93H. Kind of assay: Cell-based HCV Replicon Assay A, replicon 1AY93H. An outline of the steps:
as §1

Another assay relates to HCV replicon 2B. Kind of assay: Cell-based HCV Replicon Assay A, replicon 2B. Put shortly:
as §1

The next assay relates to HCV replicon 1AQ30D. Put plainly: Cell-based HCV Replicon Assay B, replicon 1AQ30D. Put shortly:
(§2)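 Replicon cells seeded in 5% FBS; compounds added 24 h later, then 3 days' incubation. Replicon RNA quantified by real-time RT-PCR with genotype-specific primers/probes (NS5B amplicon for 1b). EC50 = concentration raising CT by 1 over projected baseline.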

Another assay has as its system HCV replicon 1B. Kind of assay: Cell-based HCV Replicon Assay B, replicon 1B. Put shortly: as §2
The mark [1] stands for this setting: Hepatitis C virus, read-out: 1A Y93H IC50 (nM), replicon 1AY93H.
Where [2] appears, read: Hepatitis C virus, read-out: 2B IC50 (nM), replicon 2B.
The mark [3] stands for this setting: Hepatitis C virus, read-out: 1A Q30D IC50 (nM), replicon 1AQ30D.
Setting [4] is: read-out: 1A Y93H IC50, replicon 1AY93H.
The mark [5] stands for this setting: read-out: 1A Q30D IC50, replicon 1AQ30D.

`COC(=O)N[C@H](C(=O)N1CCC[C@H]1c1ncc(-c2cc(C)c3c(c2)OC(c2cnc(C4CC4)s2)n2c-3cc3cc(-c4cnc([C@@H]5CCCN5C(=O)[C@@H](NC(=O)OC)C(C)C)[nH]4)ccc32)[nH]1)C(C)C` (single isomer, unassigned) [Compound 200]: the IC50 in the assay on HCV replicon 1A (Hepatitis C virus) worked out at 4.9 pM; with HCV replicon 1AY93H (setting [1]), 0.0796 nM; in the assay with HCV replicon 2B (setting [2]), 0.014 nM; with HCV replicon 1AQ30D (setting [3]), 0.961 nM; with HCV replicon 1B (Hepatitis C virus) it was 3 pM.
`COC(=O)N[C@H](C(=O)N1CCC[C@H]1c1ncc(-c2cc(C)c3c(c2)OC(c2cnc(C4CC4)s2)n2c-3cc3cc(-c4cnc([C@@H]5C[C@H]6C[C@H]6N5C(=O)[C@@H](NC(=O)OC)C(C)(C)F)[nH]4)ccc32)[nH]1)C(C)C` (single isomer, unassigned) [Compound 208]: the IC50 in the assay on HCV replicon 1A (Hepatitis C virus) was found to be 2.8 pM; in the assay on HCV replicon 1AY93H (setting [4]) it was 0.0243 nM; in the assay with HCV replicon 2B (read-out: 2B IC50, replicon 2B), 0.011 nM; in the assay with HCV replicon 1AQ30D (setting [3]) it was 0.268 nM; in the assay with HCV replicon 1B (Hepatitis C virus), 3 pM.
With `COC(=O)NC(C(=O)N1CCC[C@H]1c1ncc(-c2ccc3c(c2)cc2n3C(c3cnc(C)s3)Oc3cc(-c4cnc([C@@H]5CCCN5C(=O)[C@@H](NC(=O)OC)C(C)C)[nH]4)cc(F)c3-2)[nH]1)C1C[C@@H](C)O[C@@H](C)C1` (single isomer, unassigned) [Compound 30], the concentration for half-maximal inhibition (IC50) turned out to be 2.8 pM with HCV replicon 1A; 0.0118 nM in the assay on HCV replicon 1AY93H (setting [4]); 0.014 nM in the assay with HCV replicon 2B (read-out: 2B IC50, replicon 2B); 0.112 nM with HCV replicon 1AQ30D (setting [3]); 3 pM with HCV replicon 1B (Hepatitis C virus).
For `CCCc1ncc(C2Oc3cc(-c4cnc([C@@H]5CCCN5C(=O)[C@@H](NC(=O)OC)C(C)C)[nH]4)cc(F)c3-c3cc4cc(-c5cnc([C@@H]6C[C@H]7C[C@H]7N6C(=O)C(NC(=O)OC)C6CCOC(C)(C)C6)[nH]5)ccc4n32)s1` (single isomer, unassigned) [Compound 104], the IC50 was determined as 2.8 pM in the assay on HCV replicon 1A (Hepatitis C virus); 0.0041 nM in the assay on HCV replicon 1AY93H (setting [4]); 0.004 nM in the assay on HCV replicon 2B (read-out: 2B IC50, replicon 2B); 0.028 nM with HCV replicon 1AQ30D (setting [5]); 3 pM in the assay with HCV replicon 1B (Hepatitis C virus).
As for `COC(=O)NC(C(=O)N1CCC[C@H]1c1ncc(-c2ccc3c(c2)cc2n3C(c3cnc(C(C)C)s3)Oc3cc(-c4cnc([C@@H]5CCCN5C(=O)[C@@H](NC(=O)OC)C(C)C)[nH]4)cc(F)c3-2)[nH]1)C1C[C@@H](C)O[C@@H](C)C1` (single isomer, unassigned) [Compound 57], the IC50 in the assay on HCV replicon 1A came to 1.6 pM; with HCV replicon 1AY93H (setting [4]) it was 0.002 nM; in the assay with HCV replicon 2B (read-out: 2B IC50, replicon 2B) it was 0.005 nM; with HCV replicon 1AQ30D (setting [3]) it was 0.028 nM; with HCV replicon 1B (Hepatitis C virus), 1 pM.
Regarding `COC(=O)NC(C(=O)N1[C@@H]2C[C@@H]2C[C@H]1c1ncc(-c2ccc3c(c2)cc2n3C(c3cnc(C4CC4)s3)Oc3cc(-c4cnc([C@@H]5CCCN5C(=O)[C@@H](NC(=O)OC)C(C)C)[nH]4)cc(F)c3-2)[nH]1)C1C[C@@H](C)O[C@@H](C)C1` (single isomer, unassigned) [Compound 310], the IC50 in the assay with HCV replicon 1A (Hepatitis C virus) worked out at 2.6 pM; in the assay with HCV replicon 1AY93H (setting [4]), 0.0954 nM; with HCV replicon 2B (read-out: 2B IC50, replicon 2B), 0.12 nM; in the assay with HCV replicon 1AQ30D (setting [5]), 0.806 nM; in the assay on HCV replicon 1B (Hepatitis C virus), 3 pM.
For `CCC(CC)c1ncc(C2Oc3cc(-c4cnc([C@@H]5CCCN5C(=O)[C@@H](NC(=O)OC)C(C)C)[nH]4)cc(F)c3-c3cc4cc(-c5cnc([C@@H]6CCCN6C(=O)[C@@H](NC(=O)OC)C(C)C)[nH]5)ccc4n32)s1` (mixture of isomers) [Compound 524], the IC50 with HCV replicon 1A (Hepatitis C virus) amounted to 3 pM; with HCV replicon 1AY93H (setting [1]) it was 0.008 nM; in the assay on HCV replicon 2B (setting [2]) it was 0.105 nM; in the assay on HCV replicon 1AQ30D (setting [3]), 0.183 nM; in the assay with HCV replicon 1B (Hepatitis C virus), 2 pM.
As for `COC(=O)NC(C(=O)N1[C@@H]2C[C@@H]2C[C@H]1c1ncc(-c2ccc3c(c2)cc2n3C(c3cnc(C4CC4)s3)Oc3cc(-c4cnc([C@@H]5CCCN5C(=O)[C@@H](NC(=O)OC)C(C)C)[nH]4)cc(C)c3-2)[nH]1)C1C[C@@H](C)O[C@@H](C)C1` (single isomer, unassigned) [Compound 217], the IC50 came out at 3.2 pM with HCV replicon 1A; 0.0085 nM in the assay on HCV replicon 1AY93H (setting [4]); 0.011 nM with HCV replicon 2B (read-out: 2B IC50, replicon 2B); 0.241 nM in the assay on HCV replicon 1AQ30D (setting [3]); 5 pM in the assay with HCV replicon 1B.
As to `COC(=O)NC(C(=O)N1CCC[C@H]1c1ncc(-c2ccc3c(c2)cc2n3C(c3cnc(C4CC4)s3)Oc3cc(-c4cnc([C@@H]5CCCN5C(=O)[C@@H](NC(=O)OC)C(C)C)[nH]4)cc(C)c3-2)[nH]1)C1C[C@@H](C)O[C@H](C)C1` (single isomer, unassigned) [Compound 213], the IC50 is 7.8 pM in the assay with HCV replicon 1A (Hepatitis C virus); 0.0252 nM in the assay with HCV replicon 1AY93H (setting [1]); 0.005 nM in the assay with HCV replicon 2B (setting [2]); 0.126 nM in the assay with HCV replicon 1AQ30D (setting [3]); 7 pM with HCV replicon 1B (Hepatitis C virus).
As for `COC(=O)N[C@H](C(=O)N1CCC[C@H]1c1ncc(-c2cc(F)c3c(c2)OC(c2cnc(C4(C)CC4)s2)n2c-3cc3cc(-c4cnc([C@@H]5C[C@H]6C[C@H]6N5C(=O)[C@@H](NC(=O)OC)C(C)C)[nH]4)ccc32)[nH]1)C(C)C` (single isomer, unassigned) [Compound 452], the IC50 in the assay on HCV replicon 1A (Hepatitis C virus) stood at 2.7 pM; in the assay on HCV replicon 1AY93H (setting [4]), 0.004 nM; in the assay with HCV replicon 2B (read-out: 2B IC50, replicon 2B), 0.04 nM; in the assay with HCV replicon 1AQ30D (setting [5]), 0.093 nM; in the assay with HCV replicon 1B (Hepatitis C virus) it was 2.5 pM.
For `COC(=O)NC(C(=O)N1[C@@H]2C[C@@H]2C[C@H]1c1ncc(-c2ccc3c(c2)cc2n3C(c3cnc(C4CCCC4)s3)Oc3cc(-c4cnc([C@@H]5CCCN5C(=O)[C@@H](NC(=O)OC)C(C)C)[nH]4)cc(F)c3-2)[nH]1)C1CCOC(C)(C)C1` (single isomer, unassigned) [Compound 322], the IC50 in the assay on HCV replicon 1A was found to be 2.7 pM; in the assay with HCV replicon 1AY93H (setting [4]), 0.0512 nM; with HCV replicon 2B (read-out: 2B IC50, replicon 2B), 0.058 nM; with HCV replicon 1AQ30D (setting [5]), 0.324 nM; in the assay on HCV replicon 1B it was 4 pM.
For `COC(=O)NC(C(=O)N1CCC[C@H]1c1ncc(-c2ccc3c(c2)cc2n3C(c3cnc(C4(C)CCCC4)s3)Oc3cc(-c4cnc([C@@H]5CCCN5C(=O)[C@@H](NC(=O)OC)C(C)C)[nH]4)cc(F)c3-2)[nH]1)C1CCOC(C)(C)C1` (single isomer, unassigned) [Compound 447], in that order: 2.8 pM, 0.259 nM, 0.059 nM, 0.607 nM and 3.3 pM.
For `CCc1ncc(C2Oc3cc(-c4cnc([C@@H]5CCCN5C(=O)[C@@H](NC(=O)OC)C(C)C)[nH]4)cc(F)c3-c3cc4cc(-c5cnc([C@@H]6C[C@H]7C[C@H]7N6C(=O)[C@@H](NC(=O)OC)C6C[C@@H](C)O[C@@H](C)C6)[nH]5)ccc4n32)s1` (single isomer, unassigned) [Compound 97], in that order: 2.5 pM, 0.0278 nM, 0.098 nM, 0.287 nM and 3 pM.
In the case of `COC(=O)NC(C(=O)N1CCC[C@H]1c1ncc(-c2ccc3c(c2)cc2n3C(c3cnc(CC(C)C)s3)Oc3cc(-c4cnc([C@@H]5CCCN5C(=O)[C@@H](NC(=O)OC)C(C)C)[nH]4)cc(F)c3-2)[nH]1)C1CCOC(C)(C)C1` (single isomer, unassigned) [Compound 544], the IC50 with HCV replicon 1A came to 3.1 pM; with HCV replicon 1AY93H (setting [4]), 0.005 nM; with HCV replicon 2B (read-out: 2B IC50, replicon 2B), 0.006 nM; in the assay on HCV replicon 1AQ30D (setting [5]), 0.051 nM; with HCV replicon 1B (Hepatitis C virus), 3.6 pM.
Turning to `COC(=O)NC(C(=O)N1CCC[C@H]1c1ncc(-c2ccc3c(c2)cc2n3C(c3cnc(C4CCC4)s3)Oc3cc(-c4cnc([C@@H]5CCCN5C(=O)[C@@H](NC(=O)OC)C(C)C)[nH]4)cc(C)c3-2)[nH]1)C1CCOC(C)(C)C1` (single isomer, unassigned) [Compound 221], the IC50 was found to be 7 pM in the assay on HCV replicon 1A (Hepatitis C virus); 0.06 nM in the assay with HCV replicon 1AY93H (setting [1]); 0.006 nM in the assay with HCV replicon 2B (setting [2]); 0.39 nM with HCV replicon 1AQ30D (setting [3]); 8 pM in the assay with HCV replicon 1B (Hepatitis C virus).
As to `COC(=O)NC(C(=O)N1[C@@H]2C[C@@H]2C[C@H]1c1ncc(-c2ccc3c(c2)cc2n3C(c3cnc(CC(C)C)s3)Oc3cc(-c4cnc([C@@H]5CCCN5C(=O)[C@@H](NC(=O)OC)C(C)C)[nH]4)cc(F)c3-2)[nH]1)C1C[C@@H](C)O[C@@H](C)C1` (single isomer, unassigned) [Compound 441], the IC50 amounted to 2.5 pM with HCV replicon 1A; 0.003 nM with HCV replicon 1AY93H (setting [4]); 0.006 nM with HCV replicon 2B (read-out: 2B IC50, replicon 2B); 0.011 nM in the assay on HCV replicon 1AQ30D (setting [5]); 3.4 pM in the assay on HCV replicon 1B.
The like results for `CCCOCc1ncc(C2Oc3cc(-c4cnc([C@@H]5CCCN5C(=O)[C@@H](NC(=O)OC)C(C)C)[nH]4)cc(F)c3-c3cc4cc(-c5cnc([C@@H]6CCCN6C(=O)[C@@H](NC(=O)OC)C(C)C)[nH]5)ccc4n32)s1` (single isomer, unassigned) [Compound 500] were, in that order, 22.5 pM, 7.79 nM, 1.67 nM, 16.7 nM and 18.4 pM.
With `CCCc1ncc(C2Oc3cc(-c4cnc([C@@H]5CCCN5C(=O)[C@@H](NC(=O)OC)C(C)C)[nH]4)cc(F)c3-c3cc4cc(-c5cnc([C@@H]6C[C@H]7C[C@H]7N6C(=O)[C@@H](NC(=O)OC)C(C)C)[nH]5)ccc4n32)s1` (single isomer, unassigned) [Compound 90], the IC50 with HCV replicon 1A (Hepatitis C virus) was determined as 2.5 pM; with HCV replicon 1AY93H (setting [4]), 0.0038 nM; in the assay on HCV replicon 2B (read-out: 2B IC50, replicon 2B), 0.018 nM; in the assay on HCV replicon 1AQ30D (setting [3]), 0.09 nM; in the assay with HCV replicon 1B (Hepatitis C virus) it was 3 pM.
For `COC(=O)N[C@H](C(=O)N1CCC[C@H]1c1ncc(-c2cc(F)c3c(c2)OC(c2cnns2)n2c-3cc3cc(-c4cnc([C@@H]5CCCN5C(=O)[C@@H](NC(=O)OC)C(C)C)[nH]4)ccc32)[nH]1)C(C)C` (single isomer, unassigned) [Compound 3], in that order: 1.5 pM, 0.048 nM, 0.14 nM, 1.05 nM and 2 pM.
